Data on 4 compounds can be found in patent US20250017948A1, “CANNABINOID COMPOSITIONS FOR GASTROESOPHAGEAL DISORDERS” (THE UNITED STATES GOVERNMENT AS REPRESENTED BY THE …, priority 2021, published 2025).

Format in all cases: cell-based, human
The test system of data set [1] is CP-A Barrett's esophagus cells. As to the kind of experiment: ROS by CM-DCFDA fluorescence after low pH and bile acid cocktail (GER). The settings on record: FIG. 6F. On the procedure:
The cannabinoids referenced in the following examples were purchased from Cayman Chemical and brought up to a stock concentration of 100 mM in DMSO. Terpenes were purchased from Sigma Aldrich. Bile acid cocktail consisted of an equimolar mixture of glycocholate, taurocholate, glycodeoxycholate, glycochenodeoxycholate, and deoxycholate at a final concentration of 0.2 mM. This cocktail reflects the mixture of bile acids to which the distal esophagus is ordinarily exposed during gastroesophageal reflux
Combinations of cannabinoids/terpenes were tested to determine whether they protected cells in the esophagus following acute exposure to a low pH environment (pH4.5) combined with a bile acid cocktail comprised of multiple physiologically-relevant secondary bile acids, which mimics the caustic environment during gastroesophageal reflux (GER). […] The cells were either immediately analyzed for ROS via fluorescent detection of CM-DCFDA or recovered for 24 hours and analyzed for DNA damage, via γ-H2AX. […] Furthermore, the combination of CBG and β-caryophyllene was tested in the residual cells and harvested 24 h post-treatment for assessment of DNA damage to obtain the γ-H2AX fluorescence plots in FIG. 6E. […]

The subject of a further data set is HET1a. The settings on record: for effect on DCA-induced mitochondrial membrane depolarization: treated prior to and during DCA exposure, FIG. 1C-1D, combination at 1:5. On the procedure: MitoProbe JC-1 Assay Kit for Flow Cytometry (cat #M34152, ThermoFisher, Massachusetts, USA) was used to measure the mitochondrial membrane potential. Depending on the experimental group, cells were pre-treated with the CBG/Phytol admixture or DMSO and incubated for 2 hours at 37° C. in a CO2 incubator. Cells were then treated with DCA with the CBG/Phytol admixture or DMSO. After treatment, cell were loaded with 2 μM of JC-1 and incubated for 15 minutes at 37° C. Cytoplasmic JC-1 monomers were detected in the green spectrum (˜529 nm) while mitochondrial J-aggregates were detected in the red spectrum (˜590 nm). Results are representative of 2 and 3 independent repeats per cell line.
These concentrations of DCA are found in esophageal aspirates of patients with GERD.
Various ratios of the combination of CBG and phytol were explored to assess DCA-induced mitochondrial membrane depolarization.

For data set [2], the system named is HET1A cells. Description: Muse Multi-Color DNA Damage kit (ATM and H2AX activation). The note with it: preliminary screen, FIG. 1B; cannabinoid:terpene 1:5, with DCA. On the procedure:
The activation of ATM and H2AX (a marker of DNA breaks) was measured using the Muse Multi-Color DNA Damage kit (MilliporeSigma, Burlington, MA, USA) according to the manufacturer's instructions. The percentage of ATM activated cells and H2AX activated cells was determined as dual activation by monitoring expression of both the ATM and γ-H2AX, using the Muse Cell Analyzer (MilliporeSigma, Burlington, MA, USA). Expression of γ-H2AX was determined by flow cytometry on an Accuri C6 flow cytometer following manufacturer protocol (MilliporeSigma, Burlington, MA, USA).
Combinations of terpenes and cannabinoids were introduced to assess the effect on DNA damage using the Muse Multicolor DNA Damage Kit (see methods for details). Based on a preliminary screen shown in FIG. 1B, it was concluded that DCA induced the highest proportion of DNA damage, along with the addition of […] (THC) containing groups, >5% vs. an untreated group.

Data set [3] relates to HET1A cells. As to the kind of experiment: Genomic instability: new copy number events on PMDA arrays. The settings on record: daily treatment 14 days; DCA 100 μM; CBG/Phytol 1:5; baseline Day 0 genome. On the procedure:
The impact of phytocannabinoids on acquisition of new genomic changes over time in human esophageal cells was assessed using Axiom™ Precision Medicine Diversity Arrays (PMDA; Affymetrix). HET1a cells, plated in T-150 flasks at a seeding density of 2,500 cells per cm^2, were divided into 4 experimental groups (n=2 each): (i) DMSO-treated controls, (ii) treated with 100 μM of DCA alone, (iii) treated with CBG/Phytol admixture alone, and (iv) treated with 100 μM of DCA and CBG/Phytol admixture. DCA and/or CBG/Phytol were freshly prepared daily by dissolving in DMSO and then added to the media. These cells were cultured for 14 consecutive days. […]
Based on the examples above, it was hypothesized that increased stress-induced apoptosis along with reduced DNA damage and mitochondrial disruption may be concordant to reduced genomic instability. […] DNA from cultured and Day 0 cells was extracted and analyzed using PMDA arrays (Affymetrix). Genomic instability in cultured cells was assessed by identifying new copy number events (both deletions and amplifications), using genome of “Day 0” cells as baseline. […] Compared to control cells, DCA induced a marked (>6-fold) increase in genomic instability, as assessed from the acquisition of new copy number events over a period of […]. […]

Data set [4] has as its system HET1A cells. Description: Cell viability via XTT assay. The note with it: DCA for 24 hours, then fresh media; FIG. 4A. On the procedure:
Cells were cultured prior to exposure to the indicated test articles. After treatment, as indicated, cells were washed and resuspended in a phenol red-free RPMI or DMEM and subsequently treated with the XTT assay (ThermoFisher, Waltham, MA, USA) or the MTS assay (Promega, Madison, WI, USA) following manufacturer protocols.
In this example, the role of CBG and Phytol on hallmarks of apoptosis resistance is described. […] Cells were pretreated with or without CBG/Phytol and then treated with DCA or a vehicle control for 24 hours. On the following day, the cells were incubated with fresh media, without DCA, and with or without CBG and/or Phytol. Cell viability was determined via XTT assay.

Each structure is given as a SMILES string. Bounds are passed on as bounds.

As to `C[C@H](CCC(=O)O)[C@H]1CC[C@H]2[C@@H]3[C@@H](O)C[C@@H]4C[C@H](O)CC[C@]4(C)[C@H]3CC[C@]12C` [UDCA, ursodeoxycholic acid], in data set [1], the “mitigation of the oxidative insult of GER (CM-DCFDA fluorescence), comparison with catalase and UDCA” value is reported as “protective effect”.

For `C/C(=C\CO)CCC[C@H](C)CCC[C@H](C)CCCC(C)C` [phytol], the “effect on DCA-induced mitochondrial membrane depolarization” value in the data set with HET1a is “not reproduced by either compound alone in a statistically significant manner”.

On to `CCCCCc1cc(O)c(C/C=C(\C)CCC=C(C)C)c(O)c1` [CBG, cannabigerol], for which the “effect on DCA-induced mitochondrial membrane depolarization” value in the data set with HET1a was “not reproduced by either compound alone in a statistically significant manner”.

On to `C[C@H](CCC(=O)O)[C@H]1CC[C@H]2[C@@H]3CC[C@@H]4C[C@H](O)CC[C@]4(C)[C@H]3C[C@H](O)[C@]12C` [DCA, deoxycholic acid], for which the “proportion of DNA damage (% ATM and H2AX positive cells) vs. an untreated group” value in the data set on HET1A cells [2] is on record as greater than 5%. Further, the “dose sufficient to induce membrane polarization” value with HET1a (acute exposure to DCA, JC-1 red/green) was determined as 100 µM. Besides, in the data set on HET1a (human), the “dosing that induced severe mitochondrial membrane depolarization and cellular apoptosis” value is given as “above 300 μM”. For the same compound, in the data set on HET1A cells [3], the “increase in genomic instability (new copy number events) compared to control cells” value is on record as greater than 6 fold. Moreover, the “number of cells after DCA alone” value in the data set with HET1A cells [4] is listed as “significant reduction in number of cells by 48 hours”.
